Experimental data reported in patent US20070128217A1 (priority 2003, published 2007).

Tests used:
[1] = test system: antibodies in sera from SARS patients (sera 1a, 1b, 2, 6, 37, 62, London, SARS-yellow, SARS-green); type: binding, human; set-up: Binding of serum 6 to linear peptides of protein X1 of SARS-CoV Urbani / Binding of serum 37 to linear peptides of protein X1 of SARS-CoV Urbani / Binding of serum 6 to looped/cyclic peptide (PEPSCAN-ELISA) / Binding of serum 37 to looped/cyclic peptide (PEPSCAN-ELISA) / Binding of serum 37 to looped/cyclic peptides of protein X1 of SARS-CoV Urbani / Binding of serum 6 to linear peptides of protein X2 / Binding of serum 37 to linear peptides of protein X2 / Binding of serum 37 to looped/cyclic peptides of protein X2 of SARS-CoV Urbani / Binding of serum 6 to linear peptides of protein M of SARS-CoV Urbani / Binding of serum 37 to linear peptides of protein M of SARS-CoV Urbani / Binding of serum 6 to looped/cyclic peptides of protein M of SARS-CoV Urbani / Binding of serum 37 to looped/cyclic peptides of protein M of SARS-CoV Urbani / Binding of serum 6 to linear peptides of protein X3 of SARS-CoV Urbani / Binding of serum 37 to linear peptides of protein X3 of SARS-CoV Urbani / Binding of serum 37 to looped/cyclic peptides of protein X3 of SARS-CoV Urbani / Binding of serum 6 to linear peptides of protein X4 of SARS-CoV Urbani / Binding of serum 37 to linear peptides of protein X4 of SARS-CoV Urbani / Binding of serum 37 to looped/cyclic peptides of protein X4 of SARS-CoV Urbani / Binding of serum 6 to linear peptides of protein X5 of SARS-CoV Urbani / Binding of serum 37 to linear peptides of protein X5 of SARS-CoV Urbani / Binding of serum 37 to looped/cyclic peptides of protein X5 of SARS-CoV Urbani / Binding of serum 6 to linear peptides of protein N of SARS-CoV Urbani / Binding of serum 37 to linear peptides of protein N of SARS-CoV Urbani / Binding of serum 6 to linear peptide (PEPSCAN-ELISA) / Binding of serum 1a to looped/cyclic peptides of protein N of SARS-CoV Urbani / Binding of serum 1b to looped/cyclic peptides of protein N of SARS-CoV Urbani / Binding of serum 2 to looped/cyclic peptides of protein N of SARS-CoV Urbani / Binding of serum 6 to looped/cyclic peptides of protein N of SARS-CoV Urbani / Binding of serum 37 to looped/cyclic peptides of protein N of SARS-CoV Urbani / Binding of serum 62 to looped/cyclic peptides of protein N of SARS-CoV Urbani / Binding of serum London to looped/cyclic peptides of protein N of SARS-CoV Urbani / Binding of serum SARS-green to looped/cyclic peptides of protein N of SARS-CoV Urbani: unit not given here
[2] = test system: control sera (pooled serum of ten healthy LUMC hospital workers; commercial negative donor pooled serum from the Dutch bloodbank); type: binding, human; set-up: Binding of Control serum LUMC to linear peptides / Binding of Control serum Blood-bank to linear peptides / Binding of Control serum LUMC to looped peptides / Binding of Control Serum Blood-Bank to Looped peptides / Binding of Control serum LUMC to linear peptides of the protein M of SARS-CoV Urbani / Binding of Control serum Blood-bank to linear peptides of the protein M of SARS-CoV Urbani / Binding of Control serum LUMC to looped peptides of the protein M of SARS-CoV Urbani / Binding of Control Serum Blood-Bank to Looped peptides of the protein M of SARS-CoV Urbani: unit not given here
[3] = test system: rabbit serum obtained by immunizing a rabbit with the SARS-CoV strain Frankfurt 1; type: binding; set-up: Binding of a rabbit serum to linear peptides / Binding of a rabbit serum to looped peptides / Rabbit serum linear peptides / Rabbit serum looped peptides / Binding of a rabbit serum to linear peptides of protein N of SARS-CoV Urbani (Rabbit serum linear peptides) / Binding of a rabbit serum to looped/cyclic peptides of protein N of SARS-CoV Urbani (Rabbit serum looped peptides): unit not given here

Row | Sequence | Binding of serum 1a to linear peptides of protein E of SARS-CoV Urbani [1] | Binding of serum 1a to looped/cyclic peptides of protein E of SARS-CoV Urbani [1] | Binding of serum 1b to linear peptides of protein E of SARS-CoV Urbani [1] | Binding of serum 1b to looped/cyclic peptides of protein E of SARS-CoV Urbani [1] | Binding of serum 2 to linear peptides of protein E of SARS-CoV Urbani [1] | Binding of serum 2 to looped/cyclic peptides of protein E of SARS-CoV Urbani [1] | Binding of serum 6 to linear peptides of protein E of SARS-CoV Urbani [1] | Binding of serum 6 to looped/cyclic peptides of protein E of SARS-CoV Urbani [1] | Binding of serum 37 to linear peptides of protein E of SARS-CoV Urbani [1] | Binding of serum 37 to looped/cyclic peptides of protein E of SARS-CoV Urbani [1] | Binding of serum 62 to looped/cyclic peptides of protein E of SARS-CoV Urbani [1] | Binding of serum London to looped/cyclic peptides of protein E of SARS-CoV Urbani [1] | Binding of serum SARS-green to looped/cyclic peptides of protein E of SARS-CoV Urbani [1] | Binding of serum SARS-yellow to looped/cyclic peptides of protein E of SARS-CoV Urbani [1] | Binding of Control Serum Blood-Bank to Looped peptides [2] | Binding of Control serum Blood-bank to linear peptides [2] | Binding of Control serum LUMC to linear peptides [2] | Binding of Control serum LUMC to looped peptides [2] | Binding of a rabbit serum to linear peptides [3] | Binding of a rabbit serum to looped peptides [3] | also measured
1 | SEETGTLIVNSVLLF | 0.9 | 0.4 | 0.7 | 0.3 | 0.3 | 0.3 | 0.7 | 0.5 | 0.7 | 0.4 | 0.7 | 0.5 | 0.4 | 0.5 | 0.6 | 0.5 | 0.6 | 0.5 | 0.7 | 0.0 | Binding of serum 62 to linear peptides of protein E of SARS-CoV Urbani [1]: 0.7; Binding of serum London to linear peptides of protein E of SARS-CoV Urbani [1]: 0.5; Binding of serum SARS-green to linear peptides of protein E of SARS-CoV Urbani [1]: 0.4; Binding of serum SARS-yellow to linear peptides of protein E of SARS-CoV Urbani [1]: 0.1
2 | SFVSEETGTLIVNSV | 0.9 | 0.5 | 0.7 | 0.4 | 0.6 | 0.5 | 0.6 | 0.4 | 0.8 | 0.6 | 0.7 | 0.5 | 0.4 | 0.7 | 0.7 | 0.9 | 0.6 | 0.7 | 0.5 | 0.1 | Binding of serum 62 to linear peptides of protein E of SARS-CoV Urbani [1]: 0.8; Binding of serum London to linear peptides of protein E of SARS-CoV Urbani [1]: 0.5; Binding of serum SARS-green to linear peptides of protein E of SARS-CoV Urbani [1]: 0.5; Binding of serum SARS-yellow to linear peptides of protein E of SARS-CoV Urbani [1]: 0.1
3 | TGTLIVNSVLLFLAF | – | 0.4 | – | 0.3 | – | 0.4 | – | 0.3 | – | 0.3 | 0.6 | 0.3 | 0.2 | 0.4 | 0.4 | 0.6 | 0.3 | 0.5 | 0.5 | 0.0 | –
4 | TLAILTALRLCAYCC | 0.8 | 0.7 | 0.9 | 0.6 | 0.3 | 0.7 | 0.6 | 0.7 | 0.7 | 0.7 | 0.7 | 0.5 | 0.5 | 0.9 | 0.7 | 0.6 | 0.4 | 0.8 | 0.7 | 0.4 | Binding of serum 62 to linear peptides of protein E of SARS-CoV Urbani [1]: 0.7; Binding of serum London to linear peptides of protein E of SARS-CoV Urbani [1]: 0.5; Binding of serum SARS-green to linear peptides of protein E of SARS-CoV Urbani [1]: 0.5; Binding of serum SARS-yellow to linear peptides of protein E of SARS-CoV Urbani [1]: 0.2
5 | VAALVFLILCFTIKR | – | – | – | – | – | – | – | – | – | – | – | – | – | – | 0.8 | 0.5 | 0.4 | 0.6 | – | – | Binding of serum 1a to linear peptides of protein X4 of SARS-CoV Urbani [1]: 0.6; Binding of serum 1a to looped/cyclic peptides of protein X4 of SARS-CoV Urbani [1]: 0.8; Binding of serum 1b to linear peptides of protein X4 of SARS-CoV Urbani [1]: 0.5; Binding of serum 1b to looped/cyclic peptides of protein X4 of SARS-CoV Urbani [1]: 0.4; Binding of serum 2 to linear peptides of protein X4 of SARS-CoV Urbani [1]: 0.4; Binding of serum 2 to looped/cyclic peptides of protein X4 of SARS-CoV Urbani [1]: 0.7; Binding of serum 6 to linear peptides of protein X4 of SARS-CoV Urbani [1]: 0.5; Binding of serum 6 to looped/cyclic peptides of protein X4 of SARS-CoV Urbani [1]: 0.6; Binding of serum 37 to linear peptides of protein X4 of SARS-CoV Urbani [1]: 0.7; Binding of serum 37 to looped/cyclic peptides of protein X4 of SARS-CoV Urbani [1]: 0.7; Binding of serum 62 to linear peptides of protein X4 of SARS-CoV Urbani [1]: 0.7; Binding of serum 62 to looped/cyclic peptides of protein X4 of SARS-CoV Urbani [1]: 0.7; Binding of serum London to linear peptides of protein X4 of SARS-CoV Urbani [1]: 0.6; Binding of serum London to looped/cyclic peptides of protein X4 of SARS-CoV Urbani [1]: 0.3; Binding of serum SARS-green to linear peptides of protein X4 of SARS-CoV Urbani [1]: 0.5; Binding of serum SARS-green to looped/cyclic peptides of protein X4 of SARS-CoV Urbani [1]: 0.4; Binding of serum SARS-yellow to linear peptides of protein X4 of SARS-CoV Urbani [1]: 0.5; Binding of serum SARS-yellow to looped/cyclic peptides of protein X4 of SARS-CoV Urbani [1]: 0.5; Rabbit serum linear peptides [3]: 0.5; Rabbit serum looped peptides [3]: 0.6
